Experimental findings from patent publication US20240018480A1, “ENHANCEMENT OF EXTRACELLULAR VESICLE PRODUCTION BY LYSOSOME INHIBITOR” (ExoTop Theragnostics Inc., priority 2022, published 2024) are described below.

The structures appear in SMILES notation. “Also recorded” adds a separate entry of the source.

Assay [1] deals with human MSCs. In words: Intracellular acidification of MSCs, acidic organelles stained by lysotracker red. Type of assay: cell-based. As to conditions: MSCs in CDPF with lysosome inhibitor vs CCM and CDPF, FIG. 2A. The protocol:
(§1) Mesenchymal stem cells were seeded on the plate at a density of ˜5000 cells/cm^2 and the plate was placed in 5% CO2 humidified incubator. One day after the incubation, the culture media was aspirated to remove non-adherent cells and switched with a fresh media. The plate was incubated again. After further culturing for around 3 to 5 days, the culture media was aspirated and replaced by CDPF and/or lysosome inhibitor medium. The cells were cultured in the CDPF and/or lysosome inhibitor medium for 12, 24, or 48 hours. After the designated period of culturing, the culture media was collected and cell lysis buffer was immediately added to the cells on the plate. The collected media and cell lysate were each independently subjected to detection of the level of CD63 by ELISA and by qPCR, respectively.
Human MSCs were cultured in different media including complete culture medium (CCM), CDPF, and CDPF with lysosome inhibitor. The acidic organelles in live stem cells were stained by lysotracker red. […] Without lysosome inhibitor, the intracellular acidification was not suppressed.

Assay [2] concerns fatty acid synthase (FASN). Put plainly: qPCR relative quantification (RQ) of fatty acid synthase (FASN) in MSCs. To be noted: FIG. 3C. Type of assay: cell-based, human. For orientation: Real-time PCR tracks product formation cycle by cycle.
Assay [3] has as its system human MSCs. In words: CD63 ELISA of culture media collected after culture with stem cells (secretion of EVs). As to conditions: FIG. 3A. In kind it is cell-based. The protocol: as §1, with “5000” for “˜5000”
To quantitatively compare CD63+ expression in CM cultured in various media including CCM, CDPF, and CDPF with lysosome inhibitor, enzyme-linked immunosorbent (ELISA) assays were performed.
Background: An ELISA detects its analyte on a solid surface through an enzyme-linked reagent.

Another assay concerns human CD63 (hCD63) gene. Put plainly: RT-qPCR of hCD63 gene expression in MSCs cultured in different media. In kind it is cell-based. To be noted: FIG. 2B. The protocol: as §1
To compare hCD63+ expression in MSCs cultured in various media including CCM, CDPF, and CDPF with lysosome inhibitor, RT-quantitative real-time PCR (RT-qPCR) assays were performed.

[4] abbreviates: MSCs in CDPF with lysosome inhibitor, RT-qPCR.

As to `CCN(CC)CCCC(C)Nc1ccnc2cc(Cl)ccc12` (stereo not drawn) [lysosome inhibitor, chloroquine], the “intracellular acidification of human MSCs” value in the assay on human MSCs [1] was “suppressed”. The “expression of FASN, times higher than MSCs cultured in CCM” value in assay [2] (MSCs in CCM with lysosome inhibitor, RT-qPCR) is reported as “about 25 times”. The “expression of FASN, times higher than MSCs cultured in CDPF without lysosome inhibitor” value in assay [2] (setting [4]) is listed as “about 5 times”. For the same compound, the “gene expression of FASN (in words)” value in assay [2] (treatment with the inhibitor, qPCR RQ) is recorded as “drastically induced”. Further, the “secretion of EVs (CD63-positive particles) from stem cells to the cultured media (in words)” value in the assay with human MSCs [3] (Ly_Inhibitor+CDPF vs CCM and CDPF, CD63 ELISA) is “stimulated”. For the same compound, in the assay on human MSCs [3] (MSCs in CDPF with lysosome inhibitor, CD63 ELISA of media), the “EV production (CD63+ particles), times higher than MSCs cultured in CCM or in CDPF without lysosome inhibitor” value is listed as “about 2.3 times”. The “expression of human CD63 gene in the MSCs (in words)” value in the assay with human CD63 (hCD63) gene (CDPF with lysosome inhibitor vs CCM, CDPF, qPCR) is reported as “increased; also recorded: dramatic increase”. For the same compound, in the assay on human CD63 (hCD63) gene (setting [4]), the “expression of hCD63+ gene, times higher than MSCs cultured in CCM” value is “about 10 times” and the “expression of hCD63+ gene, times higher than MSCs cultured in CDPF without lysosome inhibitor” value was “about 5 times”.
